Reference: ChEMBL document CHEMBL6109114, “Design, synthesis, and biological evaluation of 4-(2-fluorophenoxy)pyridine derivatives as novel FLT3-ITD inhibitors” (Eur J Med Chem, 2025)
Active and inactive are the calls of the source. The rule behind the calls is not given here.

Experiments:
[1] = Metabolic stability in Beagle dog liver microsomes assessed as half life at 1 uM measured up to 60 mins in presence of NADPH regenerating system by LC-MS/MS analysis; type: ADME, Canis lupus familiaris, Microsome
BaF3 [2] = experiment: Antiproliferative activity against mouse BaF3 cells harbouring FLT3-ITD assessed as inhibition of cell growth measured after 3 days by celltiter-glo luminescent cell viability assay; type: functional, cell-based; conditions: BaF3, 72 h
MOLM-13 [3] = experiment: Induction of apoptosis in human MOLM-13 cells assessed as viable cells at 0.1 uM incubated for 48 hrs by Annexin V-FITC/PI staining based flow cytometry analysis (reference value: 91.9%); type: functional; conditions: read-out: Activity
[4] = target: Cyclin-dependent kinase 1/cyclin B1 (Homo sapiens) (UniProt P06493+P14635); experiment: Inhibition of human CDK1/CyclinB1 at 1 uM by Eurofins-DiscoverX assay; type: protein-complex assay
Sequence of Cyclin-dependent kinase 1/cyclin B1 (Homo sapiens) (P06493 whole entry, looked up): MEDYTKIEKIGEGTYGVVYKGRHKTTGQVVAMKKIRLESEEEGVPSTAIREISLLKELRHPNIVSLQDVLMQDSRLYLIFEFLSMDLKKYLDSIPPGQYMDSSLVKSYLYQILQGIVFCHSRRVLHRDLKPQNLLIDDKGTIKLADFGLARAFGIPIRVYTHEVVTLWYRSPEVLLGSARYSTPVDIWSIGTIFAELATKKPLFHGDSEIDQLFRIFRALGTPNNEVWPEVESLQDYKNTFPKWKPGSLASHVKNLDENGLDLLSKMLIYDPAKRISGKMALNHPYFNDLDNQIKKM
Sequence of Cyclin-dependent kinase 1/cyclin B1 (Homo sapiens) (P14635 whole entry, looked up): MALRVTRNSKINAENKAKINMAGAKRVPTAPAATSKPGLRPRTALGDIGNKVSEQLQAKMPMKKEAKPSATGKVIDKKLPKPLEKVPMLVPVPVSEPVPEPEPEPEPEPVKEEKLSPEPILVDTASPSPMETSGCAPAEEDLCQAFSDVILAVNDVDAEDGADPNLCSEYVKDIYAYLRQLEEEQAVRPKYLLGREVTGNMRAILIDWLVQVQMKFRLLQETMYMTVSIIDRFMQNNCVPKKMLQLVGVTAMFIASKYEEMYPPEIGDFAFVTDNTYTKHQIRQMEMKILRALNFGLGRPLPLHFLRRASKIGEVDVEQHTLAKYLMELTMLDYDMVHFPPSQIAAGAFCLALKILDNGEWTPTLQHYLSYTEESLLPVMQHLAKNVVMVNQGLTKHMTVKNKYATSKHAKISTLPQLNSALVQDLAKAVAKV

[5] = Tmax in mouse at 5 mg/kg, iv; type: ADME, organism-based; conditions: in vivo
[6] = target: T1, Cyclin-dependent kinase 2/cyclin A (Homo sapiens) (UniProt P24941+P20248+P78396); experiment: Inhibition of human CDK2/CyclinA at 1 uM by Eurofins-DiscoverX assay; type: protein-complex assay
HL-60 = experiment: Antiproliferative activity against human HL-60 cells harbouring wild type FLT3 assessed as inhibition of cell growth measured after 3 days by celltiter-glo luminescent cell viability assay; type: functional, cell-based; conditions: HL-60, 72 h
MOLM-13 [7] = experiment: Induction of cell cycle arrest in human MOLM-13 cells assessed as accumulation of cells at G2 phase at 0.1 uM incubated for 48 hrs (reference value: […]); type: functional
[8] = Antiproliferative activity against non-FLT3 expressing human OCI-Ly1 cells assessed as inhibition of cell growth measured after 3 days by celltiter-glo luminescent cell viability assay; type: functional, cell-based; conditions: OCI-Ly1, 72 h
[9] = target: Vascular endothelial growth factor receptor 1 (Homo sapiens, UniProt P17948); experiment: Inhibition of FLT1 (unknown origin) using Fluorescein-Poly GT as substrate preincubated for 10 mins followed by substrate addition and measured after 30 mins in presence of ATP by mobility shift assay
Sequence of Vascular endothelial growth factor receptor 1 (P17948 whole entry): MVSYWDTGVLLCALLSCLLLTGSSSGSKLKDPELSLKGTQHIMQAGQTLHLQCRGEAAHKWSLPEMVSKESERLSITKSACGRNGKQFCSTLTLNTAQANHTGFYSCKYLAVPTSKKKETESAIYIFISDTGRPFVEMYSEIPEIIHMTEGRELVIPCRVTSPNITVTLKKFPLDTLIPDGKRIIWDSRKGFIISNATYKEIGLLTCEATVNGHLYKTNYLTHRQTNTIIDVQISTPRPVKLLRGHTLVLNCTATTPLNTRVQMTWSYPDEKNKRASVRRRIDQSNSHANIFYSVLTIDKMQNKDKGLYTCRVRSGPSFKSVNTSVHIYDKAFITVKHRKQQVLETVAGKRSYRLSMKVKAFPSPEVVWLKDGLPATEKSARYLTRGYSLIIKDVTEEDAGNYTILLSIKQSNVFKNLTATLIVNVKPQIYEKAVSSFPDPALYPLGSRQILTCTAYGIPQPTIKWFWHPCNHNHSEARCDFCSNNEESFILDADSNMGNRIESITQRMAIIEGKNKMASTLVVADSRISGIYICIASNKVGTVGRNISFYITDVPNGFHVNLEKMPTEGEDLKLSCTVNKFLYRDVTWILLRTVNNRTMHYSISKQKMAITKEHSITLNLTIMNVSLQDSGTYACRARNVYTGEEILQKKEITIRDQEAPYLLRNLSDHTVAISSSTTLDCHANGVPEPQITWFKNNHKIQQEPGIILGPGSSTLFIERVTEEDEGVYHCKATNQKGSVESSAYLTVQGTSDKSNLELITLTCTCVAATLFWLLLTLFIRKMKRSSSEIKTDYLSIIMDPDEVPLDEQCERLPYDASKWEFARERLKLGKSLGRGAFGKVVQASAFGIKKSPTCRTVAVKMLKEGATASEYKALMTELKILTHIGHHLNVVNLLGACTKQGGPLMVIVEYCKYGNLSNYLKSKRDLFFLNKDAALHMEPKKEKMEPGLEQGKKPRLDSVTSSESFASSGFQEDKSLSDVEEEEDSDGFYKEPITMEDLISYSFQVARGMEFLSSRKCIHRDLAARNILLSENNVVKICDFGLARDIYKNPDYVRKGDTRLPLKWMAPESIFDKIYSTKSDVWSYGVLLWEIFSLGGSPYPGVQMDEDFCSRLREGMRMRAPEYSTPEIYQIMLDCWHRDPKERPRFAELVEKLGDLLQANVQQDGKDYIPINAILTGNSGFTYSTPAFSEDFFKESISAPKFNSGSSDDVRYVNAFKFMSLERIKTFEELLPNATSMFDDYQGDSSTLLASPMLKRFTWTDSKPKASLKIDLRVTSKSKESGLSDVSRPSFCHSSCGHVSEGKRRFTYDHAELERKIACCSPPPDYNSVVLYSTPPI

[10] = target: T2, CDK3/Cyclin E (Homo sapiens) (UniProt P24864+Q00526); experiment: Inhibition of human CDK3/CyclinE at 1 uM by Eurofins-DiscoverX assay; type: protein-complex assay
T2 sequence (P24864 whole entry, looked up): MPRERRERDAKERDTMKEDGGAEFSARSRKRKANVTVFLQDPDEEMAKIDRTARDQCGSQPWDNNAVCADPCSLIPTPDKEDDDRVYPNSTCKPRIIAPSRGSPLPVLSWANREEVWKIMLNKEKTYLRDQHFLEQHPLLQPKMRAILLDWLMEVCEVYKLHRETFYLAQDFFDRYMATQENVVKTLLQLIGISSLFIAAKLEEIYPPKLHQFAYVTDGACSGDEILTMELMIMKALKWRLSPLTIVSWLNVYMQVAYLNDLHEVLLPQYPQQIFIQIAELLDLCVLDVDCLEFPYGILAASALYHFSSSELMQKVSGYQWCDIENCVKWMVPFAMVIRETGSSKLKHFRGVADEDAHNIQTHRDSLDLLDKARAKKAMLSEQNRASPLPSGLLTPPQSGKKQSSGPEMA
T2 sequence (Q00526 whole entry, looked up): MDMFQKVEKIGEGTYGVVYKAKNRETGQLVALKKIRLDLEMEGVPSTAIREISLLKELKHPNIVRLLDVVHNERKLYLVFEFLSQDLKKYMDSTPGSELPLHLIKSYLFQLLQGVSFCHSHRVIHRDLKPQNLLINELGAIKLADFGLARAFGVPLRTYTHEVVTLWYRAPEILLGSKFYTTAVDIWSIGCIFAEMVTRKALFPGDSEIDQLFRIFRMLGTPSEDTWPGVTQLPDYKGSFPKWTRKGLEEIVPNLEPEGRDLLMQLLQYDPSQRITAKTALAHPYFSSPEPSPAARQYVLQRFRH

[11] = target: CDK4/Cyclin D3 (Homo sapiens) (UniProt P11802+P30281); experiment: Inhibition of human CDK4/cyclinD3 assessed as remaining activity at 1 uM by Eurofins-DiscoverX assay relative to control; type: protein-complex assay
MOLM-13 [12] = experiment: Inhibition of STAT5 phosphorylation in human MOLM-13 cells at 0.2 uM measured after 2 hrs by Western blot analysis relative to control; type: cell-based
MOLM-13 [13] = experiment: Induction of cell cycle arrest in human MOLM-13 cells incubated for 48 hrs; type: functional, cell-based; conditions: dose 0.1-1 µM
[14] = Volume of distribution in mouse at 5 mg/kg, iv; type: ADME, organism-based; conditions: in vivo
[15] = Tmax in mouse at 10 mg/kg, po; type: ADME, organism-based; conditions: in vivo
[16] = target: CDK6/cyclin D3 (Homo sapiens) (UniProt P30281+Q00534); experiment: Inhibition of human CDK6/cyclinD3 at 1 uM by Eurofins-DiscoverX assay; type: protein-complex assay
[17] = AUC (0 to t) in mouse at 10 mg/kg, po; type: ADME, organism-based; conditions: in vivo
BaF3 [18] = experiment: Antiproliferative activity against wild type mouse BaF3 cells assessed as inhibition of cell growth measured after 3 days by celltiter-glo luminescent cell viability assay; type: functional, cell-based; conditions: BaF3, 72 h
[19] = Metabolic stability in human liver microsomes assessed as half life at 1 uM measured up to 60 mins in presence of NADPH regenerating system by LC-MS/MS analysis; type: ADME, Microsome
[20] = target: T2, CDK3/Cyclin E (Homo sapiens); experiment: Inhibition of human CDK3/CyclinE assessed as remaining activity at 1 uM by Eurofins-DiscoverX assay relative to control; type: protein-complex assay
[21] = Antiproliferative activity against non-FLT3 expressing human TMD8 cells assessed as inhibition of cell growth measured after 3 days by celltiter-glo luminescent cell viability assay; type: functional, cell-based; conditions: TMD8, 72 h
[22] = target: Receptor-type tyrosine-protein kinase FLT3 (Homo sapiens) (UniProt P36888); experiment: Inhibition of FLT3 phosphorylation in human MOLM-13 cells measured after 2 hrs by Western blot analysis; type: cell-based; conditions: dose 0.01-1 µM
Sequence of Receptor-type tyrosine-protein kinase FLT3 (Homo sapiens) (P36888 whole entry): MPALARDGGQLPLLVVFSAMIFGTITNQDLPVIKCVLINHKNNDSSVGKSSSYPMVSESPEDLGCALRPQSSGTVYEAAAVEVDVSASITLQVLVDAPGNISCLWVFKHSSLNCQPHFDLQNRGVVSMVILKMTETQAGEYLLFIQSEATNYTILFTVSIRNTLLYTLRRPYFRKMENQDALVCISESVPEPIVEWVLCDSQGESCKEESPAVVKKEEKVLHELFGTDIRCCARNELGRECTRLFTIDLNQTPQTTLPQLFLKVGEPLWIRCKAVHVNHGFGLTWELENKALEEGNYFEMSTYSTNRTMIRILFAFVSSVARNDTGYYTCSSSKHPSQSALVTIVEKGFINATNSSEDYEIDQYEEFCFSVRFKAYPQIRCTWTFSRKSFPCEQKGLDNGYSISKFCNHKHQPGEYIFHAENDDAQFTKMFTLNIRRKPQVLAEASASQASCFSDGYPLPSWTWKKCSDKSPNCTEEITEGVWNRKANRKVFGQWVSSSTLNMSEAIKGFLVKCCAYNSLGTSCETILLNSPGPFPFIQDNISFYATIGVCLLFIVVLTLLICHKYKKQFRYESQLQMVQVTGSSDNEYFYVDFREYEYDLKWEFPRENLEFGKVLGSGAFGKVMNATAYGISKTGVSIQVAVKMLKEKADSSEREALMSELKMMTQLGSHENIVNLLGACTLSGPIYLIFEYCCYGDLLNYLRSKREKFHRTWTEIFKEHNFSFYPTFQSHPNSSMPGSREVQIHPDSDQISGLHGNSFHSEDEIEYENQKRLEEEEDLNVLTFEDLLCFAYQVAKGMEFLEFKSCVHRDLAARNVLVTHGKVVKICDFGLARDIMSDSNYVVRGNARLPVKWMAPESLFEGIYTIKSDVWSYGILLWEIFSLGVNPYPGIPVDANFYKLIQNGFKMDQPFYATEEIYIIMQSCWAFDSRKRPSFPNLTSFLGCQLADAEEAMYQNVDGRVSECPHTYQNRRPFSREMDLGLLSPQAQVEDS

[23] = Metabolic stability in Beagle dog liver microsomes assessed as intrinsic clearance at 1 uM measured up to 60 mins in presence of NADPH regenerating system by LC-MS/MS analysis; type: ADME, Canis lupus familiaris, Microsome; conditions: read-out: CLH
MOLM-13 [24] = experiment: Induction of cell cycle arrest in human MOLM-13 cells assessed as accumulation of cells at S phase at 1 uM incubated for 48 hrs (reference value: 41.6%); type: functional
[25] = target: T1, Cyclin-dependent kinase 2/cyclin A (Homo sapiens); experiment: Inhibition of human CDK2/CyclinA assessed as remaining activity at 1 uM by Eurofins-DiscoverX assay relative to control; type: protein-complex assay
[26] = Metabolic stability in human liver microsomes assessed as intrinsic clearance at 1 uM measured up to 60 mins in presence of NADPH regenerating system by LC-MS/MS analysis; type: ADME, Microsome; conditions: read-out: CLH
NCI-H441 = experiment: Antiproliferative activity against non-FLT3 expressing human NCI-H441 cells assessed as inhibition of cell growth measured after 3 days by celltiter-glo luminescent cell viability assay; type: functional, cell-based; conditions: NCI-H441, 72 h
[27] = Metabolic stability in Sprague-Dawley rat liver microsomes assessed as parent compound remaining at 1 uM measured after 60 mins in presence of NADPH regenerating system by LC-MS/MS analysis; type: ADME, Microsome; conditions: read-out: Stability
[28] = Metabolic stability in human liver microsomes assessed as parent compound remaining at 1 uM measured after 60 mins by LC-MS/MS analysis; type: ADME, Microsome; conditions: read-out: Stability
MOLM-13 [29] = experiment: Induction of apoptosis in human MOLM-13 cells assessed as viable cells at 0.3 uM incubated for 48 hrs by Annexin V-FITC/PI staining based flow cytometry analysis (reference value: 91.9%); type: functional; conditions: read-out: Activity
CYP2C19 = CYP2C19 (Homo sapiens, UniProt P33261); experiment: Inhibition of CYP2C19 in human liver microsomes using S-mephenytoin as substrate at 10 uM incubated for 10 mins in presence of NADPH by LC-MS/MS analysis relative to control; type: ADME, Microsome; conditions: probe S-mephenytoin
Sequence of CYP2C19 (P33261 whole entry): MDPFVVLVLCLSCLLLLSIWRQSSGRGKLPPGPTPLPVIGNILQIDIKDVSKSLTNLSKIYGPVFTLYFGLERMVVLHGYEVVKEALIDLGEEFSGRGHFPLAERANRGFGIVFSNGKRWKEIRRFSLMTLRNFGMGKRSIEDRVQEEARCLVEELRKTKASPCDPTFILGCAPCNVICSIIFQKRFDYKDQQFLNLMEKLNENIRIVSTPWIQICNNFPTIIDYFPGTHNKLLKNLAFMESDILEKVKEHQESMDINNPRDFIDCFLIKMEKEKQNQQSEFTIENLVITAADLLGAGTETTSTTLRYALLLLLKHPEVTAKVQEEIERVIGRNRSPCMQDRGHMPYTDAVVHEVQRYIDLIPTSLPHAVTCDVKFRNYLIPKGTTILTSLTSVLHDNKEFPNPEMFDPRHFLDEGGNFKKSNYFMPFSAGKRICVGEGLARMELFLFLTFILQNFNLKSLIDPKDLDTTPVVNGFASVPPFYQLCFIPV

MOLM-13 [30] = experiment: Antitumor activity against human MOLM-13 xenografted in male nude mouse assessed as tumor growth inhibition at 30 mg/kg, po administered once daily for 14 days by vernier caliper method relative to control; type: functional; conditions: MOLM-13, 336 h, time 14 day, read-out: TGI
BaF3 [31] = experiment: Antiproliferative activity against mouse BaF3 cells harbouring FLT3-ITD-F691L mutant assessed as inhibition of cell growth measured after 3 days by celltiter-glo luminescent cell viability assay; type: functional, cell-based; conditions: BaF3, 72 h
[32] = Metabolic stability in human liver microsomes assessed as parent compound remaining at 1 uM measured after 60 mins in presence of NADPH regenerating system by LC-MS/MS analysis; type: ADME, Microsome; conditions: read-out: Stability
BaF3 [33] = experiment: Antiproliferative activity against mouse BaF3 cells harbouring FLT3-ITD-D835V mutant assessed as inhibition of cell growth measured after 3 days by celltiter-glo luminescent cell viability assay; type: functional, cell-based; conditions: BaF3, 72 h
A549 = experiment: Antiproliferative activity against non-FLT3 expressing human A549 cells assessed as inhibition of cell growth measured after 3 days by celltiter-glo luminescent cell viability assay; type: functional, cell-based; conditions: A549, 72 h
[34] = Cmax in mouse at 5 mg/kg, iv; type: ADME, organism-based; conditions: in vivo

Cc1cc(=O)n(-c2cc(Cl)ccc2F)nc1C(=O)Nc1ccc(Oc2ccnc(NC(=O)N3CC(O)C3)c2)c(F)c1
half-life at 1 µM [1]: 2.1 h | IC50 (BaF3 [2]): 0.19 µM | viability at 0.1 µM (MOLM-13 [3]): 90.6% | inhibition [4]: inactive | Tmax [5]: 0.25 h | inhibition [6]: inactive | IC50 (HL-60): 18.9 µM | Activity (MOLM-13 [7]): 9.39% | IC50 [8]: 12.3 µM | IC50 [9]: 0.348 µM | inhibition [10]: inactive | Activity [11]: 88% | inhibition (MOLM-13 [12]): 100% | Activity (MOLM-13 [13]): Dose-dependent-effect | Vd [14]: 20.9 L/kg | Tmax [15]: 1.17 h | inhibition [16]: inactive | AUC(0-t) [17]: 1400 ng·h/mL | IC50 (BaF3 [18]): > 10 µM | half-life at 1 µM [19]: 1.82 h | Activity [20]: 88% | IC50 [21]: 22.3 µM | inhibition [22]: Dose-dependent-effect | microsomal CLint at 1 µM [23]: 11.1 µL/min/mg | Activity (MOLM-13 [24]): 21.2% | Activity [25]: 88% | microsomal CLint at 1 µM [26]: 12.7 µL/min/mg | IC50 (NCI-H441): > 30 µM | remaining at 1 h, 1 µM [27]: 69.2% | remaining at 1 h, 1 µM [28]: 99.6% | viability at 0.3 µM (MOLM-13 [29]): 74.2% | inhibition at 10 min, 10 µM (CYP2C19): 36.9% | inhibition in vivo at 30 mg/kg (MOLM-13 [30]): 77.1% | IC50 (BaF3 [31]): 4.9 µM | remaining at 1 h, 1 µM [32]: 66.3% | IC50 (BaF3 [33]): 7.8 µM | IC50 (A549): > 30 µM | Cmax [34]: 443 ng/mL
